Measurements taken from patent US11130132B2, “Microfluidic neutrophil assays and systems for disease detection” (The General Hospital Corporation, priority 2016, dated 2021).

Test system: neutrophils in whole blood
Experiment: blood-spiking with immune-modulators: spontaneous neutrophil motility in whole blood in the microfluidic device
Assay type: cell-based, human
Conditions: 37° C. 30 min before loading
Description: Prior to the addition of a blood sample, devices were primed with IMDM containing 10% FBS and 1% Fibronectin (from human plasma, Sigma) by pipetting 50 μl into the sample loading chamber and around each device, such that a dome of liquid formed on top, and the outer edge of the device in contact with the coverslip was surrounded. The devices were placed under a vacuum for at least 10 minutes, and then removed and allowed to re-pressurize and equilibrate for at least 15 minutes to remove bubbles.
Whole blood samples to be loaded in the device were diluted 1:1 in IMDM with 20% FBS and stained with Hoechst 33342 dye at 32 μM for 15 minutes prior to loading. A small droplet of 0.5 μL of stained blood was then pipetted into the center of the device using a gel-loading tip. The blood droplet is pipetted into the central chamber and time-lapse imaging of the mazes was then used to measure neutrophil behavior over a period of 4 hours.
Cell motility was imaged at 10× magnification using a fully automated fluorescent Nikon TiE inverted wide field microscope with a biochamber heated to 37° C. with 5% CO2. Each microfluidic device included 8 imaging fields, each containing one […]. Each field was imaged every 2 minutes over the course of 4 hours to allow accurate tracking of cell motility.
Automated cell tracking was performed using ImageCV, TrackPy, and SciKit-Learn packages in Python. Files were converted to standard AVI format using Nikon Elements or ImageJ. Initial processing was performed to allow brightfield tracking and included removing the background. Cell tracking was performed automatically from brightfield images for most of the time-lapse sequences. Cells were tracked by size, velocity, and directionality. These tracks were written to individual CSV files for each imaging field. The specific variables for each track included: track number, video frame, cell diameter, x position, y position, distance, and velocity. Cell motility pattern identification and definitions are detailed in Table 2. Figures were prepared using Illustrator CS5 Version 15.0.0 (Adobe Systems).
For plasma-swapping experiments, 1 mL of whole blood was centrifuged at 200 g for 10 minutes to pellet cells. The platelet-rich plasma supernatants were then drawn from the tubes and transferred into fresh tubes. Platelets were then pelleted at 1900 g for 10 minutes and the plasma fraction drawn into fresh tubes. Cell pellets were then re-suspended in the appropriate exchanged plasma and an aliquot loaded into the device. For blood-spiking experiments, immune-modulators were added to the media at 2× the target dose prior to mixing 1:1 with whole blood. Once mixed, spiked blood samples were incubated at 37° C. for 30 min prior to loading.

[1] = whole blood spiked at 0.1 ng/mL
[2] = whole blood spiked at 1.0 ng/mL
[3] = whole blood spiked at 0.5 ng/mL
[4] = whole blood spiked at 0.3 ng/mL
[5] = whole blood spiked at 1.8 ng/mL

In the case of “IL1-β: immune-modulator previously reported to be elevated in septic blood, spiked into whole blood”, the “Oscillations (O)” value [1] is reported as 1.4 ± 1.5, the Pausing [1] is reported as 2.4 ± 2.8 and the “Spontaneously migrating cells (N)” value [1] is reported as 3.8 ± 3.2. For the same molecule, the “Oscillations (O)” value [2] was 1.0, the Pausing [2] was 1.0 and the “Spontaneously migrating cells (N)” value [2] was 0.3 ± 0.1.

TNF-α was tested, and the “Oscillations (O)” value [1] was 1.7 ± 3.4, the Pausing [1] was 4.8 ± 8.8 and the “Spontaneously migrating cells (N)” value [1] was 7.2 ± 13.9. For the same molecule, the “Oscillations (O)” value [3] was 1.3 ± 1.2, the Pausing [3] was 15.7 ± 14.2 and the “Spontaneously migrating cells (N)” value [3] was 25.3 ± 26.1. The “Oscillations (O)” value [2] was 0.7 ± 1.2, the Pausing [2] was 1.3 ± 0.6 and the “Spontaneously migrating cells (N)” value [2] was 2.7 ± 1.2.

B1: G-SCF: immune-modulator previously reported to be elevated in septic blood, spiked into whole blood (protein, UniProt P09919 31-207, looked up)
Granulocyte …: TPLGPASSLPQSFLLKCLEQVRKIQGDGAALQEKLVSECATYKLCHPEELVLLGHSLGIPWAPLSSCPSQALQLAGCLSQLHSGLFLYQGLLQALEGISPELGPTLDTLQLDVADFATTIWQQMEELGMAPALQPTQGAMPAFASAFQRRAGGVLVASHLQSFLEVSYRVLRHLAQP
In the case of B1, the “Oscillations (O)” value [4] is reported as 4.2 ± 9.7, the Pausing [4] is reported as 4.7 ± 9.6 and the “Spontaneously migrating cells (N)” value [4] is reported as 6.7 ± 13.6. The “Oscillations (O)” value [3] was 0.3 ± 0.6, the Pausing [3] was 2.0 ± 1.7 and the “Spontaneously migrating cells (N)” value [3] was 2.3 ± 2.3.

B2: IFN-γ: immune-modulator previously reported to be elevated in septic blood, spiked into whole blood (protein, UniProt P01579 24-161, looked up)
Interferon gamma: QDPYVKEAENLKKYFNAGHSDVADNGTLFLGILKNWKEESDRKIMQSQIVSFYFKLFKNFKDDQSIQKSVETIKEDMNVKFFNSNKKKRDDFEKLTNYSVTDLNVQRKAIHELIQVMAELSPAAKTGKRKRSQMLFRG
For B2, the “Oscillations (O)” value [5] was 4.8 ± 6.3, the Pausing [5] was 7.0 ± 6.9 and the “Spontaneously migrating cells (N)” value [5] was 10.8 ± 12.4. The “Spontaneously migrating cells (N)” value (whole blood spiked at 2.5 ng/mL) was 0 ± 0.0.
